Data on one molecule can be found in patent publication US20130090516A1, “Local Anesthesia By Magnet-Directed Concentration of Nanoparticle Conjugated Anesthetic” (CARNEGIE MELLON UNIVERSITY, priority 2011, published 2013).

The subject of series [1] is Sprague Dawley rats. As to the kind of experiment: Hargreaves test of thermal nociception (paw withdrawal latency). Type of series: in vivo, rat. The conditions noted are these: subcutaneous 0.8 ml of 0.1% or 0.2%, six animals each. An excerpt: Sprague Dawley rats (300-350 grams) were used to assess the efficacy of formulations of ropivacaine generated as described above. The Hargreaves test of thermal nociception evaluates the level of sensory anesthesia of the plantar surface of the paw and was used to assess pain sensation here. Animals were placed in individual Plexiglas testing chambers in a modified Hargreaves box. Hargreaves et al., 1988, which is hereby incorporated by reference. A very low power idle intensity beam was used to initially target the plantar surface of the hind paw. Once appropriately placed, the beam was switched to a higher power active intensity (approximately 50% of maximum intensity). This causes radiant heat stimulation of the plantar hind paw and allows for a measure of the latency of the rat's paw withdrawal threshold.
Before each experiment, baseline nociception testing was performed on the animals. In all experiments, the left paws were used as controls and the right paws were utilized in the treatment condition. Rats were anesthetized using the general anesthetic isoflurane, awaked after a designated time, and the paws were tested after their returned to baseline wakefulness (approximately 5-10 minutes). Each hind paw was tested at 5 minute intervals for 40 minutes and at 10-minute intervals for 120 minutes. […]

The test system of series [2] is Sprague Dawley rats. As to the kind of experiment: Acute toxicity after intravenous injection (cardiopulmonary arrest as evidence of toxicity). The class given is in vivo, rat. Conditions: 1.2 mg intravenous. Here is the method: Conjugated nanoparticles so prepared may be injected intravenously into a subject. […] The efficacy as a local anesthetic when concentrated with an external magnet was assessed in the following experiment.
Specifically, acute toxicity studies of unconjugated magnetic nanoparticles, assay of plasma concentration of ropivacaine, and measurement of tissue concentration of ropivacaine at the ankle were performed.
Acute toxicity studies of unconjugated magnetic nanoparticles were conducted in 10 animals. Cardiopulmonary arrest was taken as evidence of toxicity.
(§1) Each group included 3 animals. A volume of 0.3 ml of blood was drawn before injection, and at 15, 30, 60, 120, 180, 240 and 300 minutes after the injections. […] The animals in groups Bplasma and Cplasma had 14 mg of ropivacaine complexed with MNPs. In group Cplasma, the magnet assembly used in Example 2 was placed around the right ankle before injection and removed after 30 minutes.

Series [3] is described as follows: Plasma concentration / pharmacokinetics of ropivacaine after intravenous administration. The class given is in vivo, rat. On the procedure: For the assessment of plasma concentration of ropivacaine, the following groups were studied:
as §1
After intravenous administration, the plasma concentration of ropivacaine declined in an exponential manner as expected, in all three groups. Group Aplasma cannot be directly compared to the other two groups because the close in group Aplasma was 14 times lower. Between groups Bplasma and Cplasma, there were no differences in any parameter. Data are presented as mean (SD). Lambda-Z is defined as terminal elimination rate constant. AUC is the area under the concentration curve. Vd is the volume of distribution. Cl is clearance rate. N/A means not applicable. Listed probability values are established through t-tests between groups B and C.

For series [4] the following is noted: rat, in vivo.
Method: (§2) The experiments were done after placing the animals under isoflurane anesthesia and spontaneous ventilation. A volume of 2 milliliters of the injectate was given at 5-15° C. intravenously via a tail vein cannula over four to five minutes. A jugular catheter was inserted where necessary for blood withdrawals.
(§3) A separate set of two animals for each condition were used to assess ropivacaine concentration in the ankle.
(§4) In all groups, 0.3 ml of blood was withdrawn at baseline, at 15 minutes, and at 30 minutes for plasma ropivacaine determination. At 30 minutes, skin and subcutaneous tissue all around the right ankle were isolated for ropivacaine analysis. Analysis was performed by HPLC-MS-MS.
Again, data are presented as mean (SD)
Series [5] is described as follows: Ropivacaine concentration in ankle tissue and plasma at 30 minutes (HPLC-MS-MS). Conditions: Group A, ropivacaine only, 0.5 h.
Method: as §2, §3, §4
Again, data are presented as mean (SD)

What is called Cmax is the peak of the concentration-time curve. One may read the Tmax as the time at which the peak concentration occurs. Regarding `CCCN1CCCC[C@H]1C(=O)Nc1c(C)cccc1C` [Plain ropiv, ropivacaine], in series [1], the “traditional nerve block (ankle block)” value was “achieved”. Further, the lethality result in series [2] is given as “lethal”. In series [3] (Group A, 1 mg ropivacaine iv, mean), this molecule gave a peak concentration (Cmax) of 863.3 ng/mL. Also, the “Cmax (dose normalized)” value in series [3] (rat, in vivo, iv) was 863.3 ng/mL/mg. For the same molecule, in series [3] (rat, in vivo, iv, 1 mg), the AUC (0-inf) was found to be 875 ng·h/mL, the “Cl (clearance rate)” value came to 1462 mL/h, the Half life was determined as 97.8 min and the Tmax amounted to 15 min. Moreover, the “Vd (volume of distribution)” value in series [3] (rat, in vivo, iv, 1 mg) is 3180 mL. In addition, the “factor by which absolute tissue drug concentration was higher than groups B and C” value in series [4] is on record as 7-10. In addition, the “Ratio of tissue to plasma concentration” value in series [5] was found to be 3.12.
